The source of these data is patent publication EP0491041A1, “ANTIVIRAL DRUG” (NIPPON SHINYAKU COMPANY, LIMITED, priority 1989, dated 1991).

In brackets after ≈: the same amount, converted by molar mass.

For the assay, the system named is virus. The assay can be described thus: Antiviral action test: screening by inhibition of cell degeneration effect (CPE) in virus-infected HeLa cells. The class given is cell-based. As to conditions: amount of added drug whereby the CPE became 50%, M.O.I = 0.002, culture for three days. How it is done:
HeLa cells were subjected to subcultured by monolayer culture (Eagle's MEM-10% CS) and infected as M.O.I. (multiplicity of infection) = 0.01.
On the first day, HeLa cells were spread in a 75 cm³ flask and cultured on a one-day growth medium (Eagle's MEM-10% CS). On the second day, old medium was removed after confirming the formation of cell sheet, then M.O.I was made 0.01 PFU/cell and 0.5 ml of virus solution was added. The original virus solution was diluted with PBS-3% FCS solution. Operation of the virus inoculation was conducted by tilting for 1 hour at room temperature. After virus was inoculated on the cells, the virus-inoculated solution was removed, washed twice with 10 ml PBS and the residual virus solution was removed. Then 15 ml of maintenance medium (Eagle's MEM-1% CS) was added and cultured at 37°C for 2 days. The cells were observed from time to time and the culture was continued until cell fusion and cell rounding were confirmed. After the culture, medium was recovered which was used as a virus solution and was stored at -20°C until actual use.
The 78 cm³ flask containing HeLa cells which were subjected to a monolayer maintenance subculture was taken out, the old medium was discarded, 2-3 ml of 0.25% trypsine (Difco = 1:250)-0.02% EDTA/PBS(-) solution was added, tilted for a few seconds, the trypsine solution was removed and warmed at 37°C for 5 minutes. Then fresh medium was added, pipetted with a Komagome pipette and the cells were homogeneously dispersed.
Cells were counted using a cytometer, then fresh medium was added, diluted to make the cell concentration 5 x 10⁵ cells/ml, 2 ml of that was added to a laboratory dish of 35 mm diameter and cultured in a CO₂-incubator at 37°C for one day to prepare cell sheet.
The virus solution was diluted by a diluting solution to make diluted solutions of ten-times difference or step. The laboratory dish wherein HeLa cells were cultured on the previous day was taken out from the incubator, old medium was discarded and the cells were washed with each 2 ml of PBS twice. Properly diluted virus solution (0.2 ml) was added to each laboratory dish, subjected to a tilting at room temperature for 60 minutes immediately and virus was inoculated. Then the virus solution was removed, each 2 ml of 0.5% methylcellulose/Eagle's MEM-1% CS was added and cultured in a CO₂ incubator for 4 days.
The cultured laboratory dish was taken out from the CO₂-incubator and methylcellulose medium was removed. Then cells were washed with 2 ml of PDS, 2 ml of methanol was added, allowed to stand for 10 minutes and cells were immobilized and, at the same time, virus was sterilized. Hematoxylin dyeing solution (2 ml) was added to the laboratory dish which was immobilized with methanol, allowed to stand for about 10 minutes, washed with water and air-dried at room temperature. Since the cells destructed with virus were not dyed, plaque area was noted as a void and the plaque numbers were counted whereby virus value (PFU/ml) (Plaque forming units/ml) was measured.
HeLa cells during the subculture were dispersed with trypsine liquid-EDTA solution, 5 x 10⁵ cells/pore were embedded on a plate having 24 pores and cultured overnight at 37°C in a CO₂-incubator to prepare cell sheet.
As mentioned above, old medium was discarded, the cells were washed with PBS, the virus solution was diluted to make M.O.I = 0.002, 0.1 ml of it was added to each pore, subjected to a tilting at room temperature for 60 minutes and virus was inoculated to the cell.
Virus solution was removed from the cells after inoculation of virus, the cells were washed with 2 ml of PBS, each 1 ml of maintenance medium was added to each pore, then each 10 µl of the drug was added and the cells were cultured in a CO₂-incubator. Culture was conducted for three days.
The cells on the plate were observed under an invert microscope. Cell degeneration effect (CPE) was observed as cell fusion and making the cells round. […]

Take `CC(=CCN1C[C@H](O)[C@@H](O)[C@H](O)[C@H]1CO)c1ccc(Br)cc1` [Compound No. 101, N-(gamma-Methyl-4-bromocinnamyl)moranoline]: the “EC50 (50% CPE inhibition)” value was 30 µg/mL (≈ 80.6 µM).

As to `CCCCCCCCCCCCCC(=O)N1C[C@H](O)[C@@H](O)[C@H](O)[C@H]1CO` [Compound No. 174, N-Myristoylmoranoline], the “EC50 (50% CPE inhibition)” value was determined as 10 µg/mL (≈ 26.8 µM).

With `CC(=CCCN1C[C@H](O)[C@@H](O)[C@H](O)[C@H]1CO)c1ccc(Cl)cc1` [Compound No. 110, N-[4-(4-Chlorophenyl)-3-pentenyl]moranoline], the “EC50 (50% CPE inhibition)” value was 10 µg/mL (≈ 29.3 µM).

With `CC(=CCCN1C[C@H](O)[C@@H](O)[C@H](O)[C@H]1CO)c1cc(C(C)C)ccc1C` [Compound No. 119, N-[4-(2-Methyl-5-isopropylphenyl)-3-pentenyl]moranoline], the “EC50 (50% CPE inhibition)” value was 3 µg/mL (≈ 8.25 µM).

With `CCOc1cccc(C(C)=CCN2C[C@H](O)[C@@H](O)[C@H](O)[C@H]2CO)c1` [Compound No. 159, N-(gamma-Methyl-3-ethoxycinnamyl)moranoline], the “EC50 (50% CPE inhibition)” value was 30 µg/mL (≈ 88.9 µM).

On to `OC[C@@H]1[C@@H](O)[C@H](O)[C@@H](O)CN1CCCOc1ccc(Cl)cc1` [Compound No. 93, N-[3-(4-Chlorophenoxy)propyl]moranoline], for which the “EC50 (50% CPE inhibition)” value came out at 30 µg/mL (≈ 90.4 µM).

For the molecule `CCN1C[C@H](O)[C@@H](O)[C@H](O)[C@H]1CO` [B, N-ethylmoranoline, reference compound], the “EC50 (50% CPE inhibition)” value is greater than 100 µg/mL.

As to `CC(=CCCN1C[C@H](O)[C@@H](O)[C@H](O)[C@H]1CO)c1ccc(N(C)C)cc1` [Compound No. 114, N-[4-(4-Dimethylaminophenyl)-3-pentenyl]moranoline], the “EC50 (50% CPE inhibition)” value came to 30 µg/mL (≈ 85.6 µM).

Consider `CCOc1ccc(C(C)=CCN2C[C@H](O)[C@@H](O)[C@H](O)[C@H]2CO)cc1` [Compound No. 160, N-[3-(4-Ethoxyphenyl)-2-butenyl]moranoline], for which the “EC50 (50% CPE inhibition)” value was 10 µg/mL (≈ 29.6 µM).

For the molecule `Cc1ccc(S(=O)(=O)O)cc1.OC[C@@H]1[C@@H](O)[C@H](O)[C@@H](O)CN1CCCC=Cc1ccccc1` [Compound No. 89, N-(5-Phenyl-4-pentenyl)moranoline tosylate], the “EC50 (50% CPE inhibition)” value came out at 10 µg/mL.

On to `CC(=CCN1C[C@H](O)[C@@H](O)[C@H](O)[C@H]1CO)c1ccc(Cl)c(Cl)c1` [Compound No. 102, N-(gamma-Methyl-3,4-dichlorocinnamyl)moranoline], for which the “EC50 (50% CPE inhibition)” value came to 10 µg/mL (≈ 27.6 µM).

Consider `COc1ccc(C=CCCCN2C[C@H](O)[C@@H](O)[C@H](O)[C@H]2CO)c(C)c1` [Compound No. 151, N-[5-(4-Methoxy-2-methylphenyl)-4-pentenyl]moranoline], for which the “EC50 (50% CPE inhibition)” value turned out to be 30 µg/mL (≈ 85.4 µM).

Consider `CC(=CCCN1C[C@H](O)[C@@H](O)[C@H](O)[C@H]1CO)c1cccc(Cl)c1` [Compound No. 111, N-[4-(3-Chlorophenyl)-3-pentenyl]moranoline], for which the “EC50 (50% CPE inhibition)” value is 30 µg/mL (≈ 87.8 µM).

`COCCOc1cccc(C(C)=CCN2C[C@H](O)[C@@H](O)[C@H](O)[C@H]2CO)c1` [Compound No. 157, N-[3-(3-Methoxyethoxyphenyl)-2-butenyl]moranoline]: the “EC50 (50% CPE inhibition)” value was 100 µg/mL (≈ 272 µM).

As to `COc1ccccc1C(C)=CCCN1C[C@H](O)[C@@H](O)[C@H](O)[C@H]1CO` [Compound No. 116, N-[4-(2-Methoxyphenyl)-3-pentenyl]moranoline], the “EC50 (50% CPE inhibition)” value stood at 30 µg/mL (≈ 88.9 µM).

As for `COc1ccc(C=CCCCN2C[C@H](O)[C@@H](O)[C@H](O)[C@H]2CO)cc1Cl` [Compound No. 148, N-[5-(3-Chloro-4-methoxyphenyl)-4-pentenyl]moranoline], the “EC50 (50% CPE inhibition)” value was 30 µg/mL (≈ 80.7 µM).

As to `CCCCCCCCCCCCCCCCCC(=O)N1C[C@H](O)[C@@H](O)[C@H](O)[C@H]1CO` [Compound No. 171, N-Stearoylmoranoline], the “EC50 (50% CPE inhibition)” value was determined as 30 µg/mL (≈ 69.8 µM).

As for `Cc1ccc(CCCCN2C[C@H](O)[C@@H](O)[C@H](O)[C@H]2CO)cc1F` [Compound No. 150, N-[4-(3-Fluoro-4-methylphenyl)butyl]moranoline], the “EC50 (50% CPE inhibition)” value amounted to 30 µg/mL (≈ 91.6 µM).

`Cc1ccc(C=CCCN2CC(O)C(O)C(O)C2CO)cc1F` (stereo not drawn) [Compound No. 133, 4-[4-(3-Fluoro-4-methylphenyl)-3-butenyl]moranoline]: the “EC50 (50% CPE inhibition)” value amounted to 30 µg/mL (≈ 92.2 µM).

As to `CC(=CCCN1C[C@H](O)[C@@H](O)[C@H](O)[C@H]1CO)c1ccccc1C` [Compound No. 109, N-[4-(2-Methylphenyl)-3-pentenyl]moranoline], the “EC50 (50% CPE inhibition)” value was determined as 30 µg/mL (≈ 93.3 µM).

Turning to `OC[C@@H]1[C@@H](O)[C@H](O)[C@@H](O)CN1CC=C(c1ccccc1)c1ccc(F)cc1` [Compound No. 100, N-(gamma-Phenyl-4-fluorocinnamyl)moranoline], the “EC50 (50% CPE inhibition)” value was found to be 10 µg/mL (≈ 26.8 µM).

On to `CC(=CCCN1C[C@H](O)[C@@H](O)[C@H](O)[C@H]1CO)c1cccc(F)c1` [Compound No. 107, N-[4-(3-Fluorophenyl)-3-pentenyl]moranoline], for which the “EC50 (50% CPE inhibition)” value is 30 µg/mL (≈ 92.2 µM).

Turning to `CC(=CCCN1C[C@H](O)[C@@H](O)[C@H](O)[C@H]1CO)c1ccc(F)cc1` [Compound No. 108, N-[4-(4-Fluorophenyl)-3-pentenyl]moranoline], the “EC50 (50% CPE inhibition)” value came out at 30 µg/mL (≈ 92.2 µM).

Consider `CCOc1ccc(C(C)=CCCN2C[C@H](O)[C@@H](O)[C@H](O)[C@H]2CO)cc1` [Compound No. 118, N-[4-(4-Ethoxyphenyl)-3-pentenyl]moranoline], for which the “EC50 (50% CPE inhibition)” value was found to be 30 µg/mL (≈ 85.4 µM).

With `O.OC[C@@H]1[C@@H](O)[C@H](O)[C@@H](O)CN1CC=C(c1ccccc1)c1ccc(Cl)cc1` [Compound No. 99, N-(gamma-Phenyl-4-chlorocinnamyl)moranoline monohydrate], the “EC50 (50% CPE inhibition)” value turned out to be 30 µg/mL.

Consider `OC[C@@H]1[C@@H](O)[C@H](O)[C@@H](O)C[N+]1(CC=Cc1ccccc1Cl)CC=Cc1ccccc1Cl.[Cl-]` (stereo partly drawn) [Compound No. 123, N,N-Bis(2-chlorocinnamyl)moranoline ammonium chloride], for which the “EC50 (50% CPE inhibition)” value is 3 µg/mL.

For `COc1ccc(C(=CCN2C[C@H](O)[C@@H](O)[C@H](O)[C@H]2CO)c2ccccc2)cc1` [Compound No. 105, N-(gamma-Phenyl-4-methoxycinnamyl)moranoline], the “EC50 (50% CPE inhibition)” value worked out at 100 µg/mL (≈ 259 µM).

Consider `CC(=CCCN1C[C@H](O)[C@@H](O)[C@H](O)[C@H]1CO)c1ccccc1Cl` [Compound No. 112, N-[4-(2-Chlorophenyl)-3-pentenyl]moranoline], for which the “EC50 (50% CPE inhibition)” value came out at 30 µg/mL (≈ 87.8 µM).

As to `CC(=CCCN1C[C@H](O)[C@@H](O)[C@H](O)[C@H]1CO)c1cccc(C(F)(F)F)c1` [Compound No. 113, N-[4-(3-Trifluoromethylphenyl)-3-pentenyl]moranoline], the “EC50 (50% CPE inhibition)” value is 30 µg/mL (≈ 79.9 µM).

Turning to `C=C(C)C1CC=C(CN2C[C@H](O)[C@@H](O)[C@H](O)[C@H]2CO)CC1.Cc1ccc(S(=O)(=O)O)cc1` (stereo partly drawn) [Compound No. 106, N-[(4-Isopropenyl-1-cyclohexenyl)methyl]moranoline tosylate], the “EC50 (50% CPE inhibition)” value is 30 µg/mL.
